Drawing on patent US12583858B2 (Genentech, Inc., priority 2015, dated 2026), this text covers EC50 for 61 molecules.

Each structure is given as a SMILES string. Bounds are passed on as bounds.

T1 sequence (P48775 whole entry): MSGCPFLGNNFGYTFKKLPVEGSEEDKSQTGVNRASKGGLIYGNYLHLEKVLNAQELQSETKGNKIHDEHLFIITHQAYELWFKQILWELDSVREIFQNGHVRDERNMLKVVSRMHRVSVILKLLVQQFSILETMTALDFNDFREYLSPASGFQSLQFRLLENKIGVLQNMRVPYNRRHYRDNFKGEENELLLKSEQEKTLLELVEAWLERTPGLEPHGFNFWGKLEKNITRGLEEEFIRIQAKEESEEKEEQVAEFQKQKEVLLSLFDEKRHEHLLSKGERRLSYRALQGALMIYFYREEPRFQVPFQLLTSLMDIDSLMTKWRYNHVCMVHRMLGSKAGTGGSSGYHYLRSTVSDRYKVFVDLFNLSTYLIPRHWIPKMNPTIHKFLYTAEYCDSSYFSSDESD

The assay addresses T1, TDO2 (Homo sapiens, UniProt P48775).
T1 construct: decreased levels of NFK in SW48 cells (high TDO expressing cells)
The assay can be described thus: TDO2 cell assay (NFK GreenScreen, SW48 cells). Format: cell-based. The settings on record: SW48 cells (high TDO expressing), 200 uM tryptophan, 24 hours; Table 3; read-out: TDO2 Cell Fluor EC50.
Turning to `CCS(=O)(=O)N1CCC2(CC1)CC(C1c3ccccc3-c3cncn31)C2O` (single isomer, unassigned) [Example 114f], the concentration for a half-maximal effect (EC50) (usually the concentration that produces a half-maximal response) came out at 0.91 µM. Turning to `OC1CCCCCC1C1c2ccccc2-c2cncn21` (single isomer, unassigned) [Example 115a, 2-(5H-imidazo[5,1-a]isoindol-5-yl)cycloheptan-1-ol], the EC50 is 14 µM. Regarding `OC1CCCCCC1C1c2ccccc2-c2cncn21` (single isomer, unassigned) [Example 115b, 2-(5H-imidazo[5,1-a]isoindol-5-yl)cycloheptan-1-ol], the concentration giving a half-maximal response (EC50) turned out to be 3.4 µM. In the case of `OC1CCCCCC1C1c2ccccc2-c2cncn21` (single isomer, unassigned) [Example 115c, 2-(5H-imidazo[5,1-a]isoindol-5-yl)cycloheptan-1-ol] it was 0.05 µM; in that of `OC1CCCCCC1C1c2ccccc2-c2cncn21` (single isomer, unassigned) [Example 115d, 2-(5H-imidazo[5,1-a]isoindol-5-yl)cycloheptan-1-ol], 0.1 µM; in that of `CS(=O)(=O)N1CCC(O)(C2c3ccccc3-c3cncn32)C1` (single isomer, unassigned) [Example 116a], over 25 µM. As to `CS(=O)(=O)N1CCC(O)(C2c3ccccc3-c3cncn32)C1` (single isomer, unassigned) [Example 116b], the EC50 is 2.5 µM.

`CS(=O)(=O)N1CCC(O)(C2c3ccccc3-c3cncn32)C1` (single isomer, unassigned) [Example 116c]: the EC50 was over 25 µM.

Turning to `CS(=O)(=O)N1CCC(O)(C2c3ccccc3-c3cncn32)C1` (single isomer, unassigned) [Example 116d], the EC50 amounted to 0.73 µM. As to `CS(=O)(=O)N1CCC(O)C(C2c3ccc(F)cc3-c3cncn32)C1` (single isomer, unassigned) [Example 118a], the concentration for a half-maximal effect (EC50) is over 25 µM. In the case of `CS(=O)(=O)N1CCC(O)C(C2c3ccc(F)cc3-c3cncn32)C1` (single isomer, unassigned) [Example 118b] it was over 25 µM; in that of `CS(=O)(=O)N1CCC(O)C(C2c3ccc(F)cc3-c3cncn32)C1` (single isomer, unassigned) [Example 118c], 13 µM; in that of `CS(=O)(=O)N1CCC(O)C(C2c3ccc(F)cc3-c3cncn32)C1` (single isomer, unassigned) [Example 118d], over 25 µM. As for `CS(=O)(=O)N1CCC(C2c3ccc(F)cc3-c3cncn32)C(O)C1` (single isomer, unassigned) [Example 119a], the EC50 is over 25 µM.

Consider `CS(=O)(=O)N1CCC(C2c3ccc(F)cc3-c3cncn32)C(O)C1` (single isomer, unassigned) [Example 119b], for which the EC50 was found to be 8.4 µM. As for `CS(=O)(=O)N1CCC(C2c3ccc(F)cc3-c3cncn32)C(O)C1` (single isomer, unassigned) [Example 119c], the EC50 came out at 0.22 µM.

On to `O[C@@H]1COCC[C@H]1[C@@H]1c2c(F)cccc2-c2cncn21` (single isomer, unassigned) [Example 120c], for which the concentration giving a half-maximal response (EC50) is 14 µM.

For `O[C@@H]1COCC[C@H]1[C@@H]1c2c(F)cccc2-c2cncn21` (single isomer, unassigned) [Example 120d], the EC50 is over 25 µM. Regarding `Nc1ccc2c(n1)CCC(C1c3ccccc3-c3cncn31)C2O` (single isomer, unassigned) [Example 121a], the EC50 amounted to 0.84 µM. On to `Nc1ccc2c(n1)CCC(C1c3ccccc3-c3cncn31)C2O` (single isomer, unassigned) [Example 121b], for which the EC50 is over 25 µM. Take `Nc1ccc2c(n1)CCC(C1c3ccccc3-c3cncn31)C2O` (single isomer, unassigned) [Example 121c]: the EC50 came to 0.22 µM. With `Nc1ccc2c(n1)CCC(C1c3ccccc3-c3cncn31)C2O` (single isomer, unassigned) [Example 121d], the concentration giving a half-maximal response (EC50) is 17 µM. As to `Nc1ccc2c(n1)CCC(C1c3ccccc3-c3cncn31)C2O` (single isomer, unassigned) [Example 121e], the 50% effective concentration (EC50) worked out at 16 µM. Under `Nc1ccc2c(n1)CCC(C1c3ccccc3-c3cncn31)C2O` (single isomer, unassigned) [Example 121f] stands 24 µM; under `Nc1ccc2c(n1)CCC(C1c3ccccc3-c3cncn31)C2O` (single isomer, unassigned) [Example 121g], over 25 µM; under `Nc1ccc2c(n1)CCC(C1c3ccccc3-c3cncn31)C2O` (single isomer, unassigned) [Example 121h], 4.8 µM.

On to `NC(=O)c1ccc2c(c1)C(O)C(C1c3ccccc3-c3cncn31)CC2` (single isomer, unassigned) [Example 122b], for which the EC50 worked out at 12 µM. For the molecule `NC(=O)c1ccc2c(c1)C(O)C(C1c3ccccc3-c3cncn31)CC2` (single isomer, unassigned) [Example 122c], the concentration giving a half-maximal response (EC50) is 23 µM. For the molecule `NC(=O)c1ccc2c(c1)C(O)C(C1c3ccccc3-c3cncn31)CC2` (single isomer, unassigned) [Example 122d], the 50% effective concentration (EC50) was found to be 0.37 µM.

As to `NC(=O)c1ccc2c(c1)C(O)C(C1c3ccccc3-c3cncn31)CC2` (single isomer, unassigned) [Example 122e], the half-maximal effective concentration (EC50) came to 0.09 µM. As to `NC(=O)c1ccc2c(c1)C(O)C(C1c3ccccc3-c3cncn31)CC2` (single isomer, unassigned) [Example 122f], the EC50 stood at 0.91 µM. As for `O[C@@H]1c2nccnc2CC[C@H]1[C@H]1c2ccccc2-c2cncn21` (single isomer, unassigned) [Example 123a], the EC50 is 24 µM.

Take `O[C@@H]1c2nccnc2CC[C@H]1[C@H]1c2ccccc2-c2cncn21` (single isomer, unassigned) [Example 123b]: the EC50 amounted to 0.23 µM.

`Cc1ncc2c(n1)CCC(C1c3ccccc3-c3cncn31)C2O` (single isomer, unassigned) [Example 124a]: the concentration for a half-maximal effect (EC50) was determined as 16 µM. Under `Cc1ncc2c(n1)CCC(C1c3ccccc3-c3cncn31)C2O` (single isomer, unassigned) [Example 124b] stands 0.29 µM; under `O[C@@H]1c2ncccc2CC[C@H]1[C@H]1c2ccccc2-c2cncn21` (single isomer, unassigned) [Example 126a], over 25 µM. In the case of `O[C@@H]1c2ncccc2CC[C@H]1[C@H]1c2ccccc2-c2cncn21` (single isomer, unassigned) [Example 126b] it was 0.083 µM; in that of `CC(C)(C)OC(=O)N1CCCC(O)(C2c3ccccc3-c3cncn32)C1` (single isomer, unassigned) [Example 127a], 3.7 µM; in that of `CC(C)(C)OC(=O)N1CCCC(O)(C2c3ccccc3-c3cncn32)C1` (single isomer, unassigned) [Example 127b], 0.89 µM. In the case of `CC(C)(C)OC(=O)N1CCCC(O)(C2c3ccccc3-c3cncn32)C1` (single isomer, unassigned) [Example 127c] it was 0.76 µM; in that of `OC1(C2c3ccccc3-c3cncn32)CCOC1` (single isomer, unassigned) [Example 129a], over 25 µM.

For the molecule `OC1(C2c3ccccc3-c3cncn32)CCOC1` (single isomer, unassigned) [Example 129b], the half-maximal effective concentration (EC50) was found to be 17 µM.

For the molecule `OC1(C2c3ccccc3-c3cncn32)CCOC1` (single isomer, unassigned) [Example 129c], the EC50 turned out to be 4.5 µM. As to `OC1(C2c3ccccc3-c3cncn32)CCOC1` (single isomer, unassigned) [Example 129d], the 50% effective concentration (EC50) is 2.6 µM.

In the case of `Cn1cc2c(n1)CCC(C1c3ccccc3-c3cncn31)C2O` (single isomer, unassigned) [Example 130a], the EC50 was determined as 1.5 µM. Turning to `Cn1cc2c(n1)CCC(C1c3ccccc3-c3cncn31)C2O` (single isomer, unassigned) [Example 130b], the 50% effective concentration (EC50) was 0.65 µM.

Consider `Cn1cc2c(n1)CCC(C1c3ccccc3-c3cncn31)C2O` (single isomer, unassigned) [Example 130c], for which the EC50 is over 25 µM.

Regarding `Cn1cc2c(n1)CCC(C1c3ccccc3-c3cncn31)C2O` (single isomer, unassigned) [Example 130e], the 50% effective concentration (EC50) was 3.1 µM. As for `Cn1cc2c(n1)CCC(C1c3ccccc3-c3cncn31)C2O` (single isomer, unassigned) [Example 130f], the EC50 came to 1.2 µM. For `Cn1cc2c(n1)CCC(C1c3ccccc3-c3cncn31)C2O` (single isomer, unassigned) [Example 130g], the EC50 was 4.5 µM. Regarding `Cn1cc2c(n1)CCC(C1c3ccccc3-c3cncn31)C2O` (single isomer, unassigned) [Example 130h], the EC50 was over 25 µM. In the case of `OC1c2ccnn2CCCC1C1c2ccccc2-c2cncn21` (single isomer, unassigned) [Example 133a], the 50% effective concentration (EC50) is over 25 µM. Take `OC1c2ccnn2CCCC1C1c2ccccc2-c2cncn21` (single isomer, unassigned) [Example 133b]: the EC50 came out at 0.94 µM.

Consider `OC1c2ccnn2CCCC1C1c2ccccc2-c2cncn21` (single isomer, unassigned) [Example 133c], for which the EC50 was determined as 6 µM. On to `OC1c2ccnn2CCCC1C1c2ccccc2-c2cncn21` (single isomer, unassigned) [Example 133d], for which the 50% effective concentration (EC50) was over 25 µM. With `OC1c2ccnn2CCCC1C1c2ccccc2-c2cncn21` (single isomer, unassigned) [Example 133e], the EC50 was 0.28 µM. Turning to `OC1c2ccnn2CCCC1C1c2ccccc2-c2cncn21` (single isomer, unassigned) [Example 133f], the 50% effective concentration (EC50) was over 25 µM.

Turning to `OC1c2ccnn2CCCC1C1c2ccccc2-c2cncn21` (single isomer, unassigned) [Example 133g], the concentration for a half-maximal effect (EC50) is 3 µM.

For `OC1c2ccnn2CCCC1C1c2ccccc2-c2cncn21` (single isomer, unassigned) [Example 133h], the EC50 is over 25 µM.

`CC(C)C(O)C1c2ccc(F)cc2-c2cncn21` (single isomer, unassigned) [Example 135a]: the half-maximal effective concentration (EC50) is over 25 µM. On to `CC(C)C(O)C1c2ccc(F)cc2-c2cncn21` (single isomer, unassigned) [Example 135c], for which the 50% effective concentration (EC50) turned out to be 3 µM.
